Read-outs that look alike come from different tables or passages of the source.
Assays:
WT HIV-1 (strain IIIB) = assay: microbe, parasite or virus in culture; assay type: cell-based; conditions: MT-4 cells, protection against virus-induced cytopathicity by 50%, mean of at least three experiments, read-out: EC50 HIV-1 IIIB
Method: (§1) The newly synthesized compounds were evaluated for their potency and cytotoxicity against the WT HIV-1 (strain IIIB) in MT-4 cells using the MTT method. The biological evaluation results are represented as EC50 values (anti-HIV-1 activity), CC50 values (cytotoxicity), and SI values (selectivity index, CC50/EC50 ratio).

MT-4 cells = assay: Cytotoxicity in uninfected MT-4 cells, MTT method; assay type: cell-based; conditions: uninfected MT-4 cells; viability reduced by 50%
Method: as §1

[1] = tested on: L100I mutant HIV-1 strain; assay: Anti-HIV-1 activity against L100I mutant strain in MT-4 cells; assay type: cell-based
[2] = tested on: E138K mutant HIV-1 strain; assay: Anti-HIV-1 activity against E138K mutant strain in MT-4 cells; assay type: cell-based
[3] = tested on: Y181C mutant HIV-1 strain; assay: Anti-HIV-1 activity against Y181C mutant strain in MT-4 cells; assay type: cell-based
[4] = tested on: K103N mutant HIV-1 strain; assay: Anti-HIV-1 activity against K103N mutant strain in MT-4 cells; assay type: cell-based
[5] = tested on: Y188L mutant HIV-1 strain; assay: Anti-HIV-1 activity against Y188L mutant strain in MT-4 cells; assay type: cell-based
[6] = tested on: F227L + V106A double RT mutant HIV-1 strain; assay: Anti-HIV-1 activity against F227L + V106A double mutant strain in MT-4 cells; assay type: cell-based
[7] = tested on: K103N + Y181C double RT mutant HIV-1 strain; assay: Anti-HIV-1 activity against K103N + Y181C double mutant strain in MT-4 cells; assay type: cell-based
WT HIV-1 RT = WT HIV-1 RT (Human immunodeficiency virus type 1 group M subtype B, UniProt P03366); assay: Enzymatic assay against WT HIV-1 RT; conditions: read-out: IC50 WT HIV-1 RT polymerase activity
Method: The enzymatic assay against WT HIV-1 RT was conducted for most compounds (Table 2).

[8] = Cytotoxicity in uninfected MT-4 cells, MTT method; assay type: cell-based; conditions: human; uninfected MT-4 cells; viability reduced by 50%; read-out: CC50
Method: as §1

[9] = MT-4 cells, read-out: EC50 L100I
[10] = MT-4 cells, read-out: EC50 E138K
[11] = MT-4 cells, read-out: EC50 Y181C
[12] = MT-4 cells, read-out: EC50 K103N
[13] = MT-4 cells, read-out: EC50 Y188L
[14] = MT-4 cells, read-out: EC50 F227L + V106A
[15] = MT-4 cells, read-out: EC50 K103N + Y181C

Compound	EC50 (WT HIV-1 (strain IIIB)) [µM]	CC50 (MT-4 cells) [µM]	EC50 [1, 9] [µM]	EC50 [2, 10] [µM]	EC50 [3, 11] [µM]	EC50 [4, 12] [µM]	EC50 [5, 13] [µM]	EC50 [6, 14] [µM]	EC50 [7, 15] [µM]	IC50 (WT HIV-1 RT) [µM]	EC50 (WT HIV-1 (strain IIIB); Human immunodeficiency virus 1, IIIB, MT4) [µM]	CC50 [8] [µM]	EC50 ([1]; Human immunodeficiency virus 1, MT4, read-out: EC50 L100I) [µM]	EC50 ([2]; Human immunodeficiency virus 1, MT4, read-out: EC50 E138K) [µM]	EC50 ([3]; Human immunodeficiency virus 1, MT4, read-out: EC50 Y181C) [µM]	EC50 ([4]; Human immunodeficiency virus 1, MT4, read-out: EC50 K103N) [µM]	EC50 ([5]; Human immunodeficiency virus 1, MT4, read-out: EC50 Y188L) [µM]	EC50 ([6]; Human immunodeficiency virus 1, MT4, read-out: EC50 F227L + V106A) [µM]	EC50 ([7]; Human immunodeficiency virus 1, MT4, read-out: EC50 K103N + Y181C) [µM]
Cc1cccc(-c2ccc(C(C#N)c3ccnc(Nc4ccc(C#N)cc4)n3)c(F)c2)c1 (racemic) [Compound 10e, (±)-4-((4-(cyano(3-fluoro-3′-methyl-[1,1′-biphenyl]-4-yl)methyl)pyrimidin-2-yl)amino)benzonitrile]	0.43 ± 0.07	26.9 ± 3.78	9.14 ± 3.61	3.59 ± 1.03	> 26.9	> 26.9	> 26.9	> 26.9	> 26.9	0.101 ± 0.059									
N#Cc1ccc(Nc2nccc(C(C#N)c3ccc(-c4cccc(F)c4)cc3F)n2)cc1 (racemic) [Compound 10k, (±)-4-((4-(cyano(3,3′-difluoro-[1,1′-biphenyl]-4-yl)methyl)pyrimidin-2-yl)amino)benzonitrile]	0.56 ± 0.19	30.7 ± 1.79	9.29 ± 0.57	3.36 ± 0.4	9.15 ± 0.87	> 30.7	> 30.7	> 30.7	> 30.7	0.188 ± 0.172									
N#Cc1ccc(Nc2nccc(C(C#N)c3ccc(-c4ccccc4)cc3F)n2)cc1 (racemic) [Compound 10c, (±)-4-((4-(cyano(3-fluoro-[1,1′-biphenyl]-4-yl)methyl)pyrimidin-2-yl)amino)benzonitrile]	0.33 ± 0.07	23.8 ± 4.48	≥ 10.3	1.69 ± 0.17	6.37 ± 0.78	10.3 ± 0.85	> 23.8	> 23.8	> 23.8	0.062 ± 0.024									
N#Cc1ccc(Nc2nccc(C(C#N)c3ccc(-c4ccccc4Cl)cc3F)n2)cc1 (racemic) [Compound 10m, (±)-4-((4-((2′-chloro-3-fluoro-[1,1′-biphenyl]-4-yl)(cyano)methyl)pyrimidin-2-yl)amino)benzonitrile]	0.28 ± 0.04	22.5 ± 4.7	5.61 ± 1.51	2.43 ± 0.5	4.53 ± 1.47	5.34 ± 0.93	> 22.5	> 22.5	> 22.5	0.074 ± 0.024									
N#Cc1ccc(Nc2nccc(C(C#N)c3ccc(-c4ccc(C#N)cc4)cc3F)n2)cc1 (racemic) [Compound 10p, (±)-4′-(cyano(2-((4-cyanophenyl)amino)pyrimidin-4-yl)methyl)-3′-fluoro-[1,1′-biphenyl]-4-carbonitrile]	0.027 ± 0.015	36.4	1.21 ± 0.21	0.17 ± 0.03	0.87 ± 0.23	0.9 ± 0.27	9.81 ± 1.3		> 36.4	0.059 ± 0.034									
N#Cc1ccc(Nc2nccc(C(C#N)c3ccc(-c4cccc(Cl)c4)cc3F)n2)cc1 (racemic) [Compound 10n, (±)-4-((4-((3′-chloro-3-fluoro-[1,1′-biphenyl]-4-yl)(cyano)methyl)pyrimidin-2-yl)amino)benzonitrile]	0.39 ± 0.1	27.6 ± 4.05	8.31 ± 1.2	2.67 ± 0.21	9.19 ± 2.05	7.2 ± 0.89	> 27.6		> 27.6	0.171 ± 0.132									
Cc1ccnc2c1NC(=O)c1cccnc1N2C1CC1 [NVP, nevirapine, reference compound]											0.2 ± 0.1	> 15	0.98 ± 0.39	0.2 ± 0.15	6.07 ± 1.55	4.7 ± 0.63	≥ 4.62	≥ 4.28	> 15
N#Cc1ccc(Nc2nccc(C(C#N)c3ccc(-c4ccc(Cl)cc4)cc3F)n2)cc1 (racemic) [Compound 10o, (±)-4-((4-((4′-chloro-3-fluoro-[1,1′-biphenyl]-4-yl)(cyano)methyl)pyrimidin-2-yl)amino)benzonitrile]	0.18 ± 0.14	27.5 ± 7.3	5.28 ± 1.29	1.5 ± 0.28	7.49 ± 1.64	7.32 ± 0.87	> 27.5	> 27.5	> 27.5										
N#Cc1ccc(Nc2nccc(C(C#N)c3ccc(-c4ccccc4)c(F)c3)n2)cc1 (racemic) [Compound 10b, (±)-4-((4-(cyano(2-fluoro-[1,1′-biphenyl]-4-yl)methyl)pyrimidin-2-yl)amino)benzonitrile]	4.96 ± 0.56	27.3 ± 5.85	≥ 27.3	9.29 ± 1.37	> 27.3	> 27.3	> 27.3	> 27.3	> 27.3	0.46 ± 0.162									
COc1cccc(-c2ccc(C(C#N)c3ccnc(Nc4ccc(C#N)cc4)n3)c(F)c2)c1 (racemic) [Compound 10h, (±)-4-((4-(cyano(3-fluoro-3′-methoxy-[1,1′-biphenyl]-4-yl)methyl)pyrimidin-2-yl)amino)benzonitrile]	1.5 ± 0.24	30.7 ± 2.09	8.57 ± 1.26	6.16 ± 1.47	> 30.7	> 30.7	> 30.7	> 30.7	> 30.7	0.219 ± 0.171									
COc1ccc(-c2ccc(C(C#N)c3ccnc(Nc4ccc(C#N)cc4)n3)c(F)c2)cc1 (racemic) [Compound 10i, (±)-4-((4-(cyano(3-fluoro-4′-methoxy-[1,1′-biphenyl]-4-yl)methyl)pyrimidin-2-yl)amino)benzonitrile]	0.51 ± 0.42	183	31.6 ± 7.35	5.51 ± 1.06	8.57 ± 1.21	27 ± 3	50.1 ± 6.52	52.5	> 183										
Cc1ccc(-c2ccc(C(C#N)c3ccnc(Nc4ccc(C#N)cc4)n3)c(F)c2)cc1 (racemic) [Compound 10f, (±)-4-((4-(cyano(3-fluoro-4′-methyl-[1,1′-biphenyl]-4-yl)methyl)pyrimidin-2-yl)amino)benzonitrile]	0.43 ± 0.09	30.9 ± 2.76	6.12 ± 1.62	2.55 ± 0.17	9.27 ± 1.14	8.08 ± 2.74	> 30.9	> 30.9	> 30.9	0.093 ± 0.051									
N#Cc1ccc(Nc2nccc(C(C#N)c3ccc(-c4ccc(F)cc4)cc3F)n2)cc1 (racemic) [Compound 10l, (±)-4-((4-(cyano(3,4′-difluoro-[1,1′-biphenyl]-4-yl)methyl)pyrimidin-2-yl)amino)benzonitrile]	0.18 ± 0.16	25.6 ± 3.58	6.9 ± 1.76	0.98 ± 0.13	5.1 ± 0.51	6.87 ± 1.17	> 25.6	> 25.6	> 25.6										
N#Cc1ccc(Nc2nccc(C(C#N)c3ccc(-c4ccccc4)cc3)n2)cc1 (racemic) [Compound 10a, (±)-4-((4-([1,1′-biphenyl]-4-yl(cyano)methyl)pyrimidin-2-yl)amino)benzonitrile]	2.9 ± 1.89	30.8 ± 8.57	> 30.8	≥ 12.6	> 30.8	> 30.8	> 30.8	> 30.8	> 30.8										
COc1ccccc1-c1ccc(C(C#N)c2ccnc(Nc3ccc(C#N)cc3)n2)c(F)c1 (racemic) [Compound 10g, (±)-4-((4-(cyano(3-fluoro-2′-methoxy-[1,1′-biphenyl]-4-yl)methyl)pyrimidin-2-yl)amino)benzonitrile]	0.61 ± 0.16	30.1 ± 2.31	4.27 ± 0.46	3.66 ± 0.19	7.79 ± 1.67	9.78 ± 1.6	> 30	> 30	> 30	0.233 ± 0.125									
Cc1ccccc1-c1ccc(C(C#N)c2ccnc(Nc3ccc(C#N)cc3)n2)c(F)c1 (racemic) [Compound 10d, (±)-4-((4-(cyano(3-fluoro-2′-methyl-[1,1′-biphenyl]-4-yl)methyl)pyrimidin-2-yl)amino)benzonitrile]	0.43 ± 0.21	30.1 ± 1.94	3.67 ± 0.54	2.5 ± 0.33	4.89 ± 1.07	8.14 ± 1.82	> 30.1	> 30.1	> 30.1	0.074 ± 0.024									
N#Cc1ccc(Nc2nccc(C(C#N)c3ccc(-c4ccccc4F)cc3F)n2)cc1 (racemic) [Compound 10j, (±)-4-((4-(cyano(2′,3-difluoro-[1,1′-biphenyl]-4-yl)methyl)pyrimidin-2-yl)amino)benzonitrile]	0.21 ± 0.05	27.9 ± 3.56	6.06 ± 2.46	1.03 ± 0.17	3.4 ± 0.48	3.93 ± 0.65	> 27.9	> 27.9	> 27.9	0.058 ± 0.032									
